Measured values from the NIST ThermoML archive (doi:10.1016/j.tca.2011.02.002).
Numbers after ± are expanded uncertainties.

Tests used:
[1] = xn = mol fraction of the nth substance listed; details: 101 kPa, Liquid; for mass density: Vibrating tube method
[2] = excess molar enthalpy (molar enthalpy of mixing); xn = mol fraction of the nth substance listed; details: 308.15 K, 101 kPa, Liquid, 2-drop calorimeter (CSC 4600_

c1ccncc1 [pyridine] + C1CCOCC1
[1]
Details	mass density, 298.15 K [kg/m3]	mass density, 303.15 K [kg/m3]	mass density, 308.15 K [kg/m3]	speed of sound, 298.15 K [m/s]	speed of sound, 303.15 K [m/s]	speed of sound, 308.15 K [m/s]
x2 = 0	978.249 ± 0.3	973.224 ± 0.3	968.166 ± 0.3	1417.6 ± 1.1	1397.4 ± 1.1	1377.1 ± 1.1
x2 = 0.0427	973.663 ± 0.32	968.634 ± 0.32	963.658 ± 0.32	1411.9 ± 1.1	1391.4 ± 1.1	1370.9 ± 1.1
x2 = 0.1021	967.309 ± 0.35	962.276 ± 0.35	957.232 ± 0.35	1403.6 ± 1.2	1382.9 ± 1.2	1362.3 ± 1.2
x2 = 0.1883	958.157 ± 0.39	953.12 ± 0.39	948.063 ± 0.39	1391.4 ± 1.3	1370.2 ± 1.3	1349.4 ± 1.3
x2 = 0.2415	952.565 ± 0.42	947.532 ± 0.42	942.634 ± 0.42	1383.7 ± 1.3	1362.2 ± 1.3	1341.1 ± 1.3
x2 = 0.2853	948.002 ± 0.45	942.969 ± 0.45	938.037 ± 0.45	1377.4 ± 1.4	1355.6 ± 1.4	1334.3 ± 1.4
x2 = 0.3438	941.972 ± 0.48	936.936 ± 0.48	931.957 ± 0.48	1368.8 ± 1.4	1346.7 ± 1.4	1325.4 ± 1.4
x2 = 0.3742	938.871 ± 0.5	933.829 ± 0.5	928.814 ± 0.5	1364.2 ± 1.4	1342.1 ± 1.4	1320.6 ± 1.4
x2 = 0.4263	933.597 ± 0.53	928.553 ± 0.53	923.491 ± 0.53	1356.5 ± 1.5	1334 ± 1.5	1312.5 ± 1.5
x2 = 0.4642	929.793 ± 0.56	924.748 ± 0.55	919.649 ± 0.55	1350.7 ± 1.5	1328.2 ± 1.5	1306.7 ± 1.5
x2 = 0.5364	922.65 ± 0.6	917.601 ± 0.6	912.425 ± 0.59	1339.8 ± 1.6	1317.1 ± 1.6	1295.4 ± 1.6
x2 = 0.5721	919.167 ± 0.62	914.108 ± 0.62	908.895 ± 0.61	1334.4 ± 1.6	1311.6 ± 1.6	1289.8 ± 1.6
x2 = 0.6283	913.73 ± 0.66	908.661 ± 0.65	903.408 ± 0.65	1325.8 ± 1.7	1302.9 ± 1.7	1281.1 ± 1.7
x2 = 0.6872	908.097 ± 0.69	903.027 ± 0.69	897.739 ± 0.69	1316.9 ± 1.8	1293.9 ± 1.8	1271.9 ± 1.7
x2 = 0.7336	903.711 ± 0.72	898.628 ± 0.72	893.335 ± 0.72	1309.8 ± 1.8	1286.9 ± 1.8	1264.7 ± 1.8
x2 = 0.7823	899.149 ± 0.76	894.056 ± 0.75	888.752 ± 0.75	1302.5 ± 1.8	1279.5 ± 1.8	1257.3 ± 1.8
x2 = 0.8351	894.248 ± 0.79	889.143 ± 0.79	883.845 ± 0.78	1294.4 ± 1.9	1271.5 ± 1.9	1249.2 ± 1.9
x2 = 0.8752	890.543 ± 0.82	885.431 ± 0.81	880.16 ± 0.81	1288.5 ± 1.9	1265.4 ± 1.9	1243.1 ± 1.9
x2 = 0.9354	885.027 ± 0.86	879.898 ± 0.85	874.668 ± 0.85	1279.5 ± 2	1256.4 ± 2	1234.1 ± 2

[2]
Details	excess molar enthalpy [kcal/mol]
x2 = 0.0552	0.00315 ± 0.000263
x2 = 0.1006	0.00626 ± 0.000311
x2 = 0.1525	0.0101 ± 0.000335
x2 = 0.2014	0.0141 ± 0.000382
x2 = 0.2915	0.0215 ± 0.000454
x2 = 0.3462	0.0254 ± 0.000502
x2 = 0.3871	0.029 ± 0.000526
x2 = 0.4217	0.0314 ± 0.00055
x2 = 0.4853	0.0347 ± 0.000598
x2 = 0.5363	0.0376 ± 0.000621
x2 = 0.5802	0.0387 ± 0.000621
x2 = 0.6461	0.039 ± 0.000621
x2 = 0.6864	0.0391 ± 0.000621
x2 = 0.7344	0.0374 ± 0.000621
x2 = 0.7856	0.0341 ± 0.000574
x2 = 0.8315	0.0298 ± 0.00055
x2 = 0.8911	0.0219 ± 0.000454
x2 = 0.9347	0.0139 ± 0.000382

Cc1ccccn1 [2-methylpyridine] + C1CCOCC1
[1]
Details	mass density, 298.15 K [kg/m3]	mass density, 303.15 K [kg/m3]	mass density, 308.15 K [kg/m3]	speed of sound, 298.15 K [m/s]	speed of sound, 303.15 K [m/s]	speed of sound, 308.15 K [m/s]
x2 = 0	939.802 ± 0.99	935.117 ± 0.98	930.414 ± 0.98	1380.1 ± 2	1361 ± 2	1339.9 ± 2
x2 = 0.0367	937.731 ± 0.99	933.031 ± 0.98	928.307 ± 0.97	1376.6 ± 2	1357.6 ± 2	1336.4 ± 2
x2 = 0.0731	935.665 ± 0.98	930.947 ± 0.98	926.208 ± 0.97	1373 ± 2	1354.1 ± 2	1332.8 ± 2
x2 = 0.1274	932.552 ± 0.98	927.811 ± 0.97	923.053 ± 0.97	1367.7 ± 2	1348.5 ± 2	1327.2 ± 2
x2 = 0.1751	929.795 ± 0.98	925.036 ± 0.97	920.257 ± 0.96	1363 ± 2	1343.5 ± 2	1322 ± 2
x2 = 0.2373	926.162 ± 0.97	921.378 ± 0.96	916.581 ± 0.96	1356.6 ± 2	1336.7 ± 2	1315.2 ± 2
x2 = 0.2752	923.926 ± 0.97	919.13 ± 0.96	914.323 ± 0.95	1352.6 ± 2	1332.5 ± 2	1310.9 ± 2
x2 = 0.3262	920.901 ± 0.96	916.081 ± 0.96	911.259 ± 0.95	1347.2 ± 2	1326.7 ± 2	1305.1 ± 2
x2 = 0.3817	917.578 ± 0.96	912.735 ± 0.95	907.895 ± 0.94	1341.2 ± 2	1320.4 ± 2	1298.7 ± 2
x2 = 0.4248	914.974 ± 0.95	910.121 ± 0.95	905.265 ± 0.94	1336.5 ± 2	1315.4 ± 2	1293.7 ± 2
x2 = 0.4916	910.915 ± 0.95	906.032 ± 0.94	901.153 ± 0.94	1328.9 ± 2	1307.5 ± 2	1285.8 ± 2
x2 = 0.5525	907.178 ± 0.94	902.268 ± 0.94	897.366 ± 0.93	1322 ± 2	1300.4 ± 2	1278.5 ± 2
x2 = 0.6147	903.336 ± 0.94	898.401 ± 0.93	893.468 ± 0.93	1314.9 ± 2	1293 ± 2	1271.1 ± 2
x2 = 0.6674	900.064 ± 0.93	895.101 ± 0.93	890.14 ± 0.92	1308.7 ± 2	1286.8 ± 2	1264.8 ± 2
x2 = 0.7018	897.916 ± 0.93	892.937 ± 0.93	887.961 ± 0.92	1304.7 ± 2	1282.7 ± 2	1260.7 ± 2
x2 = 0.7736	893.419 ± 0.93	888.402 ± 0.92	883.383 ± 0.91	1296.3 ± 2	1274.2 ± 2	1252 ± 2
x2 = 0.8219	890.381 ± 0.92	885.337 ± 0.91	880.292 ± 0.91	1290.6 ± 2	1268.4 ± 2	1246.2 ± 2
x2 = 0.8673	887.518 ± 0.92	882.452 ± 0.91	877.377 ± 0.9	1285.3 ± 2	1262.9 ± 2	1240.7 ± 2
x2 = 0.9428	882.751 ± 0.91	877.641 ± 0.9	872.516 ± 0.9	1276.5 ± 2	1253.8 ± 2	1231.5 ± 2

[2]
Details	excess molar enthalpy [kcal/mol]
x2 = 0.0511	0.00394 ± 0.000287
x2 = 0.1102	0.00915 ± 0.000335
x2 = 0.1773	0.016 ± 0.000406
x2 = 0.2121	0.0196 ± 0.00043
x2 = 0.2683	0.0253 ± 0.000502
x2 = 0.3182	0.03 ± 0.00055
x2 = 0.3905	0.0356 ± 0.000598
x2 = 0.4304	0.0391 ± 0.000621
x2 = 0.4822	0.0413 ± 0.000645
x2 = 0.5216	0.0437 ± 0.000669
x2 = 0.5755	0.0442 ± 0.000693
x2 = 0.6213	0.0442 ± 0.000693
x2 = 0.6786	0.0428 ± 0.000669
x2 = 0.7288	0.0409 ± 0.000645
x2 = 0.7754	0.0373 ± 0.000621
x2 = 0.8216	0.0323 ± 0.000574
x2 = 0.8852	0.0232 ± 0.000478
x2 = 0.9217	0.0168 ± 0.000406
